According to publication PMC11374673, “Discovery of isoquinoline sulfonamides as allosteric gyrase inhibitors with activity against fluoroquinolone-resistant bacteria” (Nature Chemistry, 2024):
Converted amounts (≈) assume the structure as drawn. “And” between values parts separate entries of the source, which are not always exact repeats. Equal entries are not always repeated. Where two headings read alike, the source gives them in different places.

Tests used:
E. coli W3110 [1] = test: H-89 derivatives rescreen, 50 µM; assay type: cell-based; details: Escherichia coli, H-89 derivative rescreen, highest 50 µM
Method: From glycerol stocks, E. coli W3110 was cultured on blood agar plates (PB5039A, Thermo Scientific) by overnight (18 ± 2 h) aerobic incubation at 37 °C. A single colony was transferred to tryptic soy broth (TSB, 02-200-500, Scharlab). The cultures were grown to exponential phase (OD600 of 0.5) at 37 °C. The bacterial suspensions were diluted 200-fold in cation-adjusted Mueller–Hinton broth (CAMHB) and 99 µl was added to a library of test compounds (1 µl 10 mM DMSO stock, per well in technical duplicates) in polypropylene 96-well microtitre plates to reach a volume of 100 µl and a final concentration of 100 µM for each test compound and a maximum of 1% DMSO. […] Screening hits were selected from the wells where no visible bacterial growth was observed, as compared with the inoculum controls containing 1% DMSO. The follow-up screen of H-89 derivatives was performed under similar conditions with a final concentration of 50 µM.

K. pneumoniae ATCC 29665 = test: MIC by broth microdilution; assay type: cell-based, Klebsiella pneumoniae; details: read-out: MIC K. pneumoniae ATCC 29665
Summary of the method: (§1)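 Exponential-phase cultures (OD600 0.5, 37 °C aerobic), diluted 100-fold in CAMHB, were added to twofold compound dilution series. Keio strains grown with 50 µg ml^−1 kanamycin. Plates incubated overnight at 37 °C, shaking at 600 r.p.m.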

HepG2 = test: Cytotoxicity assay (MTT); assay type: cell-based, human; details: for IC50: MTT, 24 h
HEK293T = test: Cytotoxicity assay (MTT); assay type: cell-based, human; details: for MTT data (raw readout) / MTT data (raw reading): HEK293T; for IC50: Homo sapiens, HEK-293T, 24 h, MTT
Summary of the method: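 HEK293T cells, maintained at 37 °C and 7% CO2 in Dulbecco’s modified Eagle medium with GlutaMax, antibiotics and serum, were plated in clear 96-well plates in 100 µl medium containing 1% fetal bovine serum and left 24 h to attach. After 24 h compound exposure, MTT (0.40 mg ml^−1) was added for 2 h. Formazan was dissolved in 100 µl DMSO and absorbance measured at 570 nm. Background-corrected IC50 values came from variable-slope non-linear fits.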

E. coli W3110 [2] = test: MIC by broth microdilution; assay type: cell-based, Escherichia coli; details: for MIC: broth microdilution, read-out: MIC E. coli W3110; for antimicrobial activity: relative to parent compound
Summary of the method: as §1

[3] = Klebsiella pneumoniae, ATCC29665, broth microdilution

SMILES: CC(C)(C)c1cc(NC(=O)CCC#Cc2ccc(N)nc2)no1 [Compound 29]
- MIC (E. coli W3110 [1]): > 50 µM

SMILES: CC(C)(C)c1cc(NC(=O)CCC#Cc2ccncc2)no1 [Compound 33]
- MIC (E. coli W3110 [1]): > 50 µM

SMILES: Nc1ncccc1-c1ccc(CCC(=O)NCCNS(=O)(=O)c2cccc3cnccc23)cc1 [Compound 40]
- MIC (E. coli W3110 [1]): > 50 µM

SMILES: CC(C)(C)c1cc(C(=O)NCC#Cc2cccnc2)no1 [Compound 32]
- MIC (E. coli W3110 [1]): > 50 µM

SMILES: O=S(=O)(NCCNCCCc1ccc(-c2cnc3[nH]ccc3c2)cc1)c1ccccc1 [Compound 19]
- MIC (E. coli W3110 [1]): > 50 µM

SMILES: O=C(CCc1ccc(-c2cnc3[nH]ccc3c2)cc1)NCCNS(=O)(=O)c1ccc(Cl)cc1 [Compound 13]
- MIC (E. coli W3110 [1]): > 50 µM

SMILES: Nc1ccc(-c2ccc(CCC(=O)NCCNS(=O)(=O)c3cccc4cnccc34)cc2)cn1 [Compound 41]
- MIC (E. coli W3110 [1]): > 50 µM

SMILES: CNC(=O)c1ncccc1-c1ccc(CCC(=O)NCCNS(=O)(=O)c2cccc3cnccc23)cc1 [Compound 43]
- MIC (E. coli W3110 [1]): > 50 µM

SMILES: O=S(=O)(NCCNCc1ccc(-c2ccsc2)cc1)c1cccc2cnccc12 [Compound 57]
- MIC (K. pneumoniae ATCC 29665; [3]): 12.5 µM (≈ 5.29 µg/mL)
- MTT data (raw readout) (HepG2; HepG2, 0.023 uM, experiment n = 1, technical triplicates): 0.512 and 0.502 and 0.507
- MTT data (raw readout) (HepG2; HepG2, 0.023 uM, experiment n = 2, technical triplicates): 0.479 and 0.518 and 0.476
- MTT data (raw readout) (HepG2; HepG2, 0.068 uM, experiment n = 1, technical triplicates): 0.477 and 0.445 and 0.510
- MTT data (raw readout) (HepG2; HepG2, 0.068 uM, experiment n = 2, technical triplicates): 0.538 and 0.507 and 0.588
- MTT data (raw readout) (HepG2; HepG2, 0.21 uM, experiment n = 1, technical triplicates): 0.485 and 0.473 and 0.497
- MTT data (raw readout) (HepG2; HepG2, 0.21 uM, experiment n = 2, technical triplicates): 0.529 and 0.523 and 0.494
- MTT data (raw readout) (HepG2; HepG2, 0.62 uM, experiment n = 1, technical triplicates): 0.426 and 0.445 and 0.470
- MTT data (raw readout) (HepG2; HepG2, 0.62 uM, experiment n = 2, technical triplicates): 0.529 and 0.507 and 0.472
- MTT data (raw readout) (HepG2; HepG2, 1.85 uM, experiment n = 1, technical triplicates): 0.360 and 0.379 and 0.361
- MTT data (raw readout) (HepG2; HepG2, 1.85 uM, experiment n = 2, technical triplicates): 0.404 and 0.395 and 0.409
- MTT data (raw readout) (HepG2; HepG2, 5.6 uM, experiment n = 1, technical triplicates): 0.268 and 0.278 and 0.299
- MTT data (raw readout) (HepG2; HepG2, 5.6 uM, experiment n = 2, technical triplicates): 0.322 and 0.303 and 0.267
- MTT data (raw readout) (HepG2; HepG2, 16.7 uM, experiment n = 1, technical triplicates): 0.206 and 0.230 and 0.232
- MTT data (raw readout) (HepG2; HepG2, 16.7 uM, experiment n = 2, technical triplicates): 0.246 and 0.259
- MTT data (raw readout) (HepG2; HepG2, 50 uM, experiment n = 2, technical triplicates): 0.039 and 0.047 and 0.038
- IC50 (HepG2; Homo sapiens, HepG2, 24 h): 8.2 µM
- MTT data (raw readout) (HEK293T; 0.023 uM, experiment n = 1, technical triplicates): 0.793 and 0.726 and 0.620
- MTT data (raw readout) (HEK293T; 0.023 uM, experiment n = 2, technical triplicates): 0.807 and 0.803 and 0.611
- MTT data (raw readout) (HEK293T; 0.068 uM, experiment n = 1, technical triplicates): 0.732 and 0.738 and 0.650
- MTT data (raw readout) (HEK293T; 0.068 uM, experiment n = 2, technical triplicates): 0.765 and 0.761 and 0.569
- MTT data (raw readout) (HEK293T; 0.21 uM, experiment n = 1, technical triplicates): 0.722 and 0.771 and 0.628
- MTT data (raw readout) (HEK293T; 0.21 uM, experiment n = 2, technical triplicates): 0.825 and 0.737 and 0.605
- MTT data (raw readout) (HEK293T; 0.62 uM, experiment n = 1, technical triplicates): 0.689 and 0.691 and 0.563
- MTT data (raw readout) (HEK293T; 0.62 uM, experiment n = 2, technical triplicates): 0.748 and 0.715 and 0.545
- MTT data (raw readout) (HEK293T; 1.85 uM, experiment n = 1, technical triplicates): 0.625 and 0.610 and 0.502
- MTT data (raw readout) (HEK293T; 1.85 uM, experiment n = 2, technical triplicates): 0.678 and 0.632 and 0.506
- MTT data (raw readout) (HEK293T; 5.6 uM, experiment n = 1, technical triplicates): 0.490 and 0.501 and 0.402
- MTT data (raw readout) (HEK293T; 5.6 uM, experiment n = 2, technical triplicates): 0.448 and 0.475 and 0.377
- MTT data (raw readout) (HEK293T; 16.7 uM, experiment n = 1, technical triplicates): 0.253 and 0.231 and 0.202
- MTT data (raw readout) (HEK293T; 16.7 uM, experiment n = 2, technical triplicates): 0.296 and 0.267 and 0.213
- MTT data (raw readout) (HEK293T; 50 uM, experiment n = 1, technical triplicates): 0.051 and 0.066 and 0.048
- MTT data (raw readout) (HEK293T; 50 uM, experiment n = 2, technical triplicates): 0.078 and 0.094 and 0.056
- IC50 (HEK293T): 6.6 µM
- MIC (E. coli W3110 [2]; Escherichia coli, W3110, WT): 6.25 µM (≈ 2.65 µg/mL)
- antimicrobial activity (E. coli W3110 [2]): equally potent

SMILES: O=S(=O)(NC[C@@H]1CC[C@@H](c2ccc(-c3ccc(F)nc3)cc2)N1)c1cccc2cnccc12 [Compound 98]
- MIC (K. pneumoniae ATCC 29665; [3]): > 50 µM
- MIC (K. pneumoniae ATCC 29665; broth microdilution): > 50 µM
- MTT data (raw reading) (HepG2; HepG2, 0.023 uM, n = 1): 0.370 and 0.364 and 0.367
- MTT data (raw reading) (HepG2; HepG2, 0.023 uM, n = 2): 0.490 and 0.437 and 0.362
- MTT data (raw reading) (HepG2; HepG2, 0.068 uM, n = 1): 0.458 and 0.420 and 0.439
- MTT data (raw reading) (HepG2; HepG2, 0.068 uM, n = 2): 0.379 and 0.325 and 0.398
- MTT data (raw reading) (HepG2; HepG2, 0.21 uM, n = 1): 0.404 and 0.366 and 0.380
- MTT data (raw reading) (HepG2; HepG2, 0.21 uM, n = 2): 0.373 and 0.308 and 0.356
- MTT data (raw reading) (HepG2; HepG2, 0.62 uM, n = 1): 0.411 and 0.337 and 0.367
- MTT data (raw reading) (HepG2; HepG2, 0.62 uM, n = 2): 0.419 and 0.335 and 0.320
- MTT data (raw reading) (HepG2; HepG2, 1.85 uM, n = 1): 0.394 and 0.411 and 0.409
- MTT data (raw reading) (HepG2; HepG2, 1.85 uM, n = 2): 0.343 and 0.331 and 0.334
- MTT data (raw reading) (HepG2; HepG2, 5.6 uM, n = 1): 0.374 and 0.346 and 0.373
- MTT data (raw reading) (HepG2; HepG2, 5.6 uM, n = 2): 0.307 and 0.313 and 0.306
- MTT data (raw reading) (HepG2; HepG2, 16.7 uM, n = 1): 0.262 and 0.289 and 0.283
- MTT data (raw reading) (HepG2; HepG2, 16.7 uM, n = 2): 0.250 and 0.271 and 0.247
- MTT data (raw reading) (HepG2; HepG2, 50 uM, n = 1): 0.250 and 0.255 and 0.242
- MTT data (raw reading) (HepG2; HepG2, 50 uM, n = 2): 0.199 and 0.179 and 0.169
- IC50 (HepG2; Homo sapiens, HepG2, 24 h): 66 µM
- IC50 (HepG2): > 50 µM
- MTT data (raw reading) (HEK293T; 0.023 uM, n = 1): 1.493 and 1.422 and 1.498
- MTT data (raw reading) (HEK293T; 0.023 uM, n = 2): 1.187 and 1.056 and 1.058
- MTT data (raw reading) (HEK293T; 0.068 uM, n = 1): 1.655 and 1.492 and 1.570
- MTT data (raw reading) (HEK293T; 0.068 uM, n = 2): 1.098 and 1.078 and 1.080
- MTT data (raw reading) (HEK293T; 0.21 uM, n = 1): 1.461 and 1.519 and 1.638
- MTT data (raw reading) (HEK293T; 0.21 uM, n = 2): 1.171 and 1.012 and 1.113
- MTT data (raw reading) (HEK293T; 0.62 uM, n = 1): 1.554 and 1.331 and 1.351
- MTT data (raw reading) (HEK293T; 0.62 uM, n = 2): 1.166 and 1.093 and 0.989
- MTT data (raw reading) (HEK293T; 1.85 uM, n = 1): 1.381 and 1.338 and 1.408
- MTT data (raw reading) (HEK293T; 1.85 uM, n = 2): 1.030 and 0.960 and 0.941
- MTT data (raw reading) (HEK293T; 5.6 uM, n = 1): 1.292 and 1.223 and 1.327
- MTT data (raw reading) (HEK293T; 5.6 uM, n = 2): 0.968 and 1.003 and 0.916
- MTT data (raw reading) (HEK293T; 16.7 uM, n = 1): 1.160 and 1.126 and 1.075
- MTT data (raw reading) (HEK293T; 16.7 uM, n = 2): 0.762 and 0.627 and 0.780
- MTT data (raw reading) (HEK293T; 50 uM, n = 1): 0.797 and 0.734
- MTT data (raw reading) (HEK293T; 50 uM, n = 2): 0.478 and 0.528
- IC50 (HEK293T): 49 µM
- MIC (E. coli W3110 [2]; Escherichia coli, W3110, WT): > 50 µM
- MIC (E. coli W3110 [2]; WT): > 50 µM
- antimicrobial activity (E. coli W3110 [2]): completely inactive
